Calls of active or inactive are those of the source. The rule behind the calls is not given here. Numbered stars: 1 amine (or outer) side, 2 acyl side, 3 side chain; on linkers, the order of the positions; unused ones are H or OH. Square brackets hold non-standard residues; d marks the D form. Peptide text beside a SMILES is read from it. Azetidine3carboxylic = O=C(C1CN([*:1])C1)[*:2]; βPro(3R) = O=C([C@@H]1CCN([*:1])C1)[*:2]; βPro(3S) = O=C([C@H]1CCN([*:1])C1)[*:2]; X2 = O=C([C@H]1CCCN([*:1])C1)[*:2]; βAla = NCCC(=O)O
Target: Ephrin type-A receptor 4 (Homo sapiens) (UniProt P54764)
Sequence (P54764 whole entry, the tested form may be a part): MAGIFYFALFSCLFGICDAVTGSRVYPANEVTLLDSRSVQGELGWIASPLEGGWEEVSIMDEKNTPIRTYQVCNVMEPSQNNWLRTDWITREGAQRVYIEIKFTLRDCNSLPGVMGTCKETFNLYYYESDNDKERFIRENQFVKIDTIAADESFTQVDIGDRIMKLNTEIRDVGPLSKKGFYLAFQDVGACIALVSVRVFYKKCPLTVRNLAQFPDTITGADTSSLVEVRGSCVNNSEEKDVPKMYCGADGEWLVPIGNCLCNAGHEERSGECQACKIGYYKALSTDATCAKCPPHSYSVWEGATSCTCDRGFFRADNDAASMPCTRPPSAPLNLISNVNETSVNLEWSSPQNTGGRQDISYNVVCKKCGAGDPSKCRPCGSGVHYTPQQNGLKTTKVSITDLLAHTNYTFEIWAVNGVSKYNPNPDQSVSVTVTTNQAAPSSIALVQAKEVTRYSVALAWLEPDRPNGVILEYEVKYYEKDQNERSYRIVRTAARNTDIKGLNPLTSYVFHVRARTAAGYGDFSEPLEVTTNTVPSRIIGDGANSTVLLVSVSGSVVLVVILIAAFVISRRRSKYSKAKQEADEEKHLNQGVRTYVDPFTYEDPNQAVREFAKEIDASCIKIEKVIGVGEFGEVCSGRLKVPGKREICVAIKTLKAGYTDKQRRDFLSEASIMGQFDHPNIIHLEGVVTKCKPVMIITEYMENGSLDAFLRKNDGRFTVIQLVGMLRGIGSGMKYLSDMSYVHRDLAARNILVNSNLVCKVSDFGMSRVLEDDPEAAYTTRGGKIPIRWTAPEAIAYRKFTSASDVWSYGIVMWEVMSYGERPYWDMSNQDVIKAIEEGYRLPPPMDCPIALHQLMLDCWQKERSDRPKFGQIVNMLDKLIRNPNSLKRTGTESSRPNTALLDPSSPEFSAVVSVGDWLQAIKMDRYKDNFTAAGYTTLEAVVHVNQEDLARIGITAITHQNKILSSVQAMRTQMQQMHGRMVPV
Assay: Binding affinity to EphA4-LBD (unknown origin) at 40 uM by isothermal titration calorimetry
Settings: not given

Activity, inactive:
CC(C)[C@H](NC(=O)[C@H](C)NC(=O)[C@H](Cc1ccc(O)cc1)NC(=O)[C@@H]1CCCN1C(=O)CCN)C(=O)N[C@@H](Cc1ccc(O)cc1)C(=O)N[C@@H](CCCNC(=N)N)C(=O)N1CC[C@@H]1C(=O)N[C@@H](CO)C(=O)N[C@@H](Cc1c[nH]c2ccccc12)C(=O)N[C@@H](CO)C(=O)N[C@@H](C)C(N)=O, CC(C)[C@H](NC(=O)[C@H](C)NC(=O)[C@H](Cc1ccc(O)cc1)NC(=O)[C@@H]1CCCN1C(=O)CCN)C(=O)N[C@@H](Cc1ccc(O)cc1)C(=O)N[C@@H](CCCNC(=N)N)C(=O)N1CC(C(=O)N[C@@H](CO)C(=O)N[C@@H](Cc2c[nH]c3ccccc23)C(=O)N[C@@H](CO)C(=O)N[C@@H](C)C(N)=O)C1 (H-[βAla]PYAVYR[Azetidine3carboxylic]SWSA-NH2), CC(C)[C@H](NC(=O)[C@H](C)NC(=O)[C@H](Cc1ccc(O)cc1)NC(=O)[C@@H]1CCCN1C(=O)CCN)C(=O)N[C@@H](Cc1ccc(O)cc1)C(=O)N[C@@H](CCCNC(=N)N)C(=O)N1CC[C@@H](C(=O)N[C@@H](CO)C(=O)N[C@@H](Cc2c[nH]c3ccccc23)C(=O)N[C@@H](CO)C(=O)N[C@@H](C)C(N)=O)C1 (H-[βAla]PYAVYR[βPro(3R)]SWSA-NH2), CC(C)[C@H](NC(=O)[C@H](C)NC(=O)[C@H](Cc1ccc(O)cc1)NC(=O)[C@@H]1CCCN1C(=O)CCN)C(=O)N[C@@H](Cc1ccc(O)cc1)C(=O)N[C@@H](CCCNC(=N)N)C(=O)N1CCC[C@H](C(=O)N[C@@H](CO)C(=O)N[C@@H](Cc2c[nH]c3ccccc23)C(=O)N[C@@H](CO)C(=O)N[C@@H](C)C(N)=O)C1 (H-[βAla]PYAVYR[X2]SWSA-NH2), CC(C)[C@H](NC(=O)[C@H](C)NC(=O)[C@H](Cc1ccc(O)cc1)NC(=O)[C@@H]1CCCN1C(=O)CCN)C(=O)N[C@@H](Cc1ccc(O)cc1)C(=O)N[C@@H](CCCNC(=N)N)C(=O)N1CC[C@H]1C(=O)N[C@@H](CO)C(=O)N[C@@H](Cc1c[nH]c2ccccc12)C(=O)N[C@@H](CO)C(=O)N[C@@H](C)C(N)=O, CC(C)[C@H](NC(=O)[C@H](C)NC(=O)[C@H](Cc1ccc(O)cc1)NC(=O)[C@@H]1CCCN1C(=O)CCN)C(=O)N[C@@H](Cc1ccc(O)cc1)C(=O)N[C@@H](CCCNC(=N)N)C(=O)N1CC[C@H](C(=O)N[C@@H](CO)C(=O)N[C@@H](Cc2c[nH]c3ccccc23)C(=O)N[C@@H](CO)C(=O)N[C@@H](C)C(N)=O)C1 (H-[βAla]PYAVYR[βPro(3S)]SWSA-NH2), CC(C)[C@H](NC(=O)[C@H](C)NC(=O)[C@H](Cc1ccc(O)cc1)NC(=O)[C@@H]1CCCN1C(=O)CCN)C(=O)N[C@@H](Cc1ccc(O)cc1)C(=O)N[C@@H](CCCNC(=N)N)C(=O)N[C@H]1CC[C@@H]1C(=O)N[C@H](CO)C(=O)N[C@@H](Cc1c[nH]c2ccccc12)C(=O)N[C@@H](CO)C(=O)N[C@@H](C)C(N)=O

Target: Ephrin type-A receptor 4 (Mus musculus) (UniProt Q03137)
Sequence (Q03137 whole entry): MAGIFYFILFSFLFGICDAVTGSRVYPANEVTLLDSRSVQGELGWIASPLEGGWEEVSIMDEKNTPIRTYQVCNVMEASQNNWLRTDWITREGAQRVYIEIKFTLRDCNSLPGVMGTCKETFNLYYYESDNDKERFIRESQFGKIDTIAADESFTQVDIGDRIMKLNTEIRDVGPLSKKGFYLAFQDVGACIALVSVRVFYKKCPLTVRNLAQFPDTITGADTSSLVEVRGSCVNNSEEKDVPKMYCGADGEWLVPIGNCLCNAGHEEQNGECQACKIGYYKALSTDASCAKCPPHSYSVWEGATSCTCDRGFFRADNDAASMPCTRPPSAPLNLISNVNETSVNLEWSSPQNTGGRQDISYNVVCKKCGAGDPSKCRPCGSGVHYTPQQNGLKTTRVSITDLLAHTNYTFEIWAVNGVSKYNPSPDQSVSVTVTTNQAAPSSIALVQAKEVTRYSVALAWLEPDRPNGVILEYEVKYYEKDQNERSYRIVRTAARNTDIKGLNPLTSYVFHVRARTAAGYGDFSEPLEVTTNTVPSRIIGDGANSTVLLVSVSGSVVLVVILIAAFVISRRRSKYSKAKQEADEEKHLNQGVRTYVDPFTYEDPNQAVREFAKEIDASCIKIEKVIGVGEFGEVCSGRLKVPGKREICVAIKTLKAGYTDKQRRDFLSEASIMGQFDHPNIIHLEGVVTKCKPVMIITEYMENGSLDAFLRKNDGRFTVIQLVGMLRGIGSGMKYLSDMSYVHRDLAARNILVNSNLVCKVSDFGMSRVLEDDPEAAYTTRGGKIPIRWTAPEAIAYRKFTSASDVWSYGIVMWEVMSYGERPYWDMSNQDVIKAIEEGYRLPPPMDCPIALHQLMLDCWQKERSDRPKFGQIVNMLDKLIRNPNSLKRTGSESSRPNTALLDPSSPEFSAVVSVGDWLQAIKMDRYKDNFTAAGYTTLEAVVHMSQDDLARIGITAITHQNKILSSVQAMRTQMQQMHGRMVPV
Assay: Induction of EphA4 phosphorylation in C57BL/6 mouse Primary cortical neuron at 1 to 10 uM incubated for 30 mins by immunoprecipitation based Western blot analysis
Assay type: cell-based
Settings: dose 1-10 µM

Activity, inactive:
CC(C)[C@H](NC(=O)[C@H](CS)NC(=O)[C@H](Cc1ccc(O)cc1)NC(=O)[C@@H]1CCCN1C(=O)CCN)C(=O)N[C@@H](Cc1ccc(O)cc1)C(=O)N[C@@H](CCCNC(=N)N)C(=O)NCCC(=O)N[C@@H](CO)C(=O)N[C@@H](Cc1cc2ccccc2[nH]1)C(=O)N[C@@H](CO)C(=O)N[C@@H](CS)C(N)=O

Reference: ChEMBL document CHEMBL6078699, “Constrained β-Hairpins Targeting the EphA4 Ligand Binding Domain” (J Med Chem, 2024)
